According to ChEMBL document CHEMBL1201862, “PubChem BioAssay data set” (2004):
Active and inactive are the calls of the source.

Tests used:
[1] = molecular target: Aspartyl aminopeptidase (Plasmodium falciparum 3D7, UniProt Q8I2J3)
[2] = molecular target: Procathepsin L (Homo sapiens, UniProt P07711)
[3] = molecular target: T1, Dual specificity protein phosphatase 3 (Homo sapiens, UniProt P51452); assay: SAR VHR1 absorbance Assay for In Vitro dose response studies. [Related pubchem assays (depositor defined):AID1654, AID1661, AID1878, AID1992, AID2004]
T1 sequence (P51452 whole entry): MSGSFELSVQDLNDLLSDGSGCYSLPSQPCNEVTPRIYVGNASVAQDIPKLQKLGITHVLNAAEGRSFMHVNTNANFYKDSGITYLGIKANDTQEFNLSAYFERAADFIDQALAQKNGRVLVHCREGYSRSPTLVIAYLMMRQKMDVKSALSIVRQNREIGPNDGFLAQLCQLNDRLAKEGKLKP

[4] = molecular target: T1, Dual specificity protein phosphatase 3; assay: SAR VHR1 Fluorescent Assay for In Vitro dose response studies. [Related pubchem assays (depositor defined):AID1654, AID1661, AID1878, AID1992, AID2004, AID2070, AID2085]; format: functional
[5] = molecular target: T1, Dual specificity protein phosphatase 3; assay: MOA VHR1 Fluorescent secondary assay for identification of redox-state modulating compounds. [Related pubchem assays (depositor defined):AID1654, AID1661, AID1878, AID1957]
[6] = molecular target: T2, Tyrosine-protein phosphatase non-receptor type 7 (Homo sapiens, UniProt P35236); assay: redox-active compounds inhibiting HePTP phosphatase – biochemical, fluorescence, mechanism study (AID 2068); format: functional
T2 sequence (P35236 whole entry): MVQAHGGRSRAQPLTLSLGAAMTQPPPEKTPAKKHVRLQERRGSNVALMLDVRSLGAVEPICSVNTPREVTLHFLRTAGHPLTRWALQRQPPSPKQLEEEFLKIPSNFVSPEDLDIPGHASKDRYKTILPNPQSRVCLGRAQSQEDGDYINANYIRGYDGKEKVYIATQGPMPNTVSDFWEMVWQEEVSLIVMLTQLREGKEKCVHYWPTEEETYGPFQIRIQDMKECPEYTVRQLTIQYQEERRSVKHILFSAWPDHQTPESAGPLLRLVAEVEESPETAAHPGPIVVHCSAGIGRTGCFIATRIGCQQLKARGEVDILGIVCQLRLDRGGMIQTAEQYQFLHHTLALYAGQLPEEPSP

[7] = molecular target: Dual specificity protein phosphatase 6 (Rattus norvegicus, UniProt Q64346); format: functional;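 note: confirmatory in vitro dose-response testing of MKP-3 inhibition; recombinant His-tagged MKP-3 made in E. coli BL21 with OMFP substrate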
Chain of Dual specificity protein phosphatase 6 (Q64346 whole entry): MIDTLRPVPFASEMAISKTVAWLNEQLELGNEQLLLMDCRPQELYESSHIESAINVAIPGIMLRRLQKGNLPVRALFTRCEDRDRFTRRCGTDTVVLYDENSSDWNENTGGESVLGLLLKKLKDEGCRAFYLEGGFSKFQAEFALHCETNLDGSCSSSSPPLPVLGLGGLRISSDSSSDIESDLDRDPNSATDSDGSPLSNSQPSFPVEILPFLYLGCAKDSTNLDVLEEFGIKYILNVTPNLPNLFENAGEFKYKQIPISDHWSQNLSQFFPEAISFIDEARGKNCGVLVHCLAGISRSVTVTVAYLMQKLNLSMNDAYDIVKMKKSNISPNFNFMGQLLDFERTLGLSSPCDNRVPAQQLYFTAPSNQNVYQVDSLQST

[8] = molecular target: T3, Rac GTPase-activating protein 1 (Homo sapiens, UniProt Q9H0H5); assay: blockers of MgcRacGAP-driven Rac1 GTP hydrolysis – biochemical, ADP Hunter fluorescence, primary and confirmatory, confirmation (AID 624330); format: functional
T3 sequence (Q9H0H5 whole entry): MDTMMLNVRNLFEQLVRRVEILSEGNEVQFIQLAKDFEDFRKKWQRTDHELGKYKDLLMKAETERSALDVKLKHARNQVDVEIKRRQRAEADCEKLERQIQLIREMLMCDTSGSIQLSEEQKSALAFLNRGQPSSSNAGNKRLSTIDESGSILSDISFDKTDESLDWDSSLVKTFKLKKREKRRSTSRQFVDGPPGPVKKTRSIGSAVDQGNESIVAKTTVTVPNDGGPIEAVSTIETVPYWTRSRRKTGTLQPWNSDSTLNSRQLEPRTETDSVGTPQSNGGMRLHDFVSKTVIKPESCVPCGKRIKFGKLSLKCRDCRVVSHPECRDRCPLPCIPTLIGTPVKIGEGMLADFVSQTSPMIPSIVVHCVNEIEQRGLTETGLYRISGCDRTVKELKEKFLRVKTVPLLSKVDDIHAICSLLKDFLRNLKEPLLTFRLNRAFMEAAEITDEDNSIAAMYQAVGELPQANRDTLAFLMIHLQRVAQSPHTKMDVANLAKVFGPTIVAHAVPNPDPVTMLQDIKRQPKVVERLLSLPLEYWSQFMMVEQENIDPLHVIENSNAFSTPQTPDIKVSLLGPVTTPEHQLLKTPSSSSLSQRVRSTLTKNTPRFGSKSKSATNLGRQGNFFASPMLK

[9] = molecular target: T4, Hexokinase HKDC1 (Homo sapiens, UniProt Q2TB90); assay: inhibition of HKDC1 glucose phosphorylation – biochemical, W721R variant, dose response (AID 504729); format: functional
T4 sequence (Q2TB90 whole entry): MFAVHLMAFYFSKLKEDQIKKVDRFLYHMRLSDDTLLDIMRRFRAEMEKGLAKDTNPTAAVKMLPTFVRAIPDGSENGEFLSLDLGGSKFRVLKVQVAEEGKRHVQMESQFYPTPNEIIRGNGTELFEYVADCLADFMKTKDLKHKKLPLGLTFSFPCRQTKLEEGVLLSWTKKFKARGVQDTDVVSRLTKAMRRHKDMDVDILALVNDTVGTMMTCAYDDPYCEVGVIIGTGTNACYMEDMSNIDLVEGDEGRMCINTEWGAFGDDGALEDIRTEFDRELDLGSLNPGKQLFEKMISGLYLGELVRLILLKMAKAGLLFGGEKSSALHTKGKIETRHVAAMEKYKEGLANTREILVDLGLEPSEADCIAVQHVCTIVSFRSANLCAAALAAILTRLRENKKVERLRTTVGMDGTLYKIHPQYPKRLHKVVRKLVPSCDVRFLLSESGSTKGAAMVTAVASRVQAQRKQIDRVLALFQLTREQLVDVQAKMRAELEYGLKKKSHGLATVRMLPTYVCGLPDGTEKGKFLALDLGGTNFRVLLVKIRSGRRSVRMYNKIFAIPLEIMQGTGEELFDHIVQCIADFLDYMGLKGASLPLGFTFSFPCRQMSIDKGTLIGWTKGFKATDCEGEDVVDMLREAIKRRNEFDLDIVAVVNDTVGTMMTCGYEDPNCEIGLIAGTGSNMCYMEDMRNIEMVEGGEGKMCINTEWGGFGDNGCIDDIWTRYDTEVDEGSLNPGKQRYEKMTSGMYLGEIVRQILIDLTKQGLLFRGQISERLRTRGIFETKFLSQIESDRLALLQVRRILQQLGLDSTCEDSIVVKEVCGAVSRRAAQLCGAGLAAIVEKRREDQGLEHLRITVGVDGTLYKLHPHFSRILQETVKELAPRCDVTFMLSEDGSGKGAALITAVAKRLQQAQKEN

[10] = luciferase reporter signal suppression in cells – H4 neuroglioma cells, luminescence, dose response (AID 1990); format: functional, cell-based
[11] = luciferase reporter signal reduction – luminescence, H4-C neuroglioblastoma cells, dose response (AID 2458); format: functional, cell-based;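 note: H4 neuroglioblastoma cells stably carrying a luciferase reporter gene fusion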
[12] = cells; format: functional, cell-based
[13] = Luminescence Cell-Based Dose Response HTS to Identify Inhibitors of 5'UTR Stem-Loop Driven Prion Protein mRNA Translation in H4 Neuroglioblastoma Cells. [Related pubchem assays: 1827 (Project Summary), 1813 (Primary HTS)]; format: functional
[14] = alpha-synuclein stem-loop luciferase translation blockers – H4 neuroglioma cells, luminescence, confirmation (AID 1988); format: functional, cell-based
[15] = Luminescence-based counterscreen assay for KLF5 inhibitors: dose response cell-based high throughput screening assay to identify cytotoxic compounds using the IEC-6 intestinal epithelial cell line. [Related pubchem assays: 1700 (Primary screen.), 1834 (Confirmation screen.), 1858 (Summary AID.), 1905 (Counterscreen.)]; format: functional
[16] = molecular target: Heat shock protein HSP 90-alpha (Homo sapiens, UniProt P07900); assay: Luminescence-based dose response biochemical high throughput screening assay for inhibitors of the Heat Shock Protein 90 (HSP90). [Related pubchem assays: 1831 (Summary AID.), 1846 (Confirmation screen.), 1789 (Primary screen.)]
[17] = alpha-synuclein stem-loop translation blockers – luminescence, H4 neuroglioblastoma cells, dose confirmation, confirmation (AID 2454); format: functional, cell-based;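 note: H4 neuroglioblastoma cells carrying an alpha-synuclein 5'UTR luciferase reporter; potency for inhibition of the luciferase signal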
[18] = HEK-293T viability loss after treatment – luminescence, T-cell screen hits, cytotoxicity control for TCR NF-kB inhibitor project, dose response (AID 489026); format: functional, cell-based;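 note: cells exposed to compound about 14 hours before the viability readout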
[19] = molecular target: T5, Histone-lysine N-methyltransferase NSD2 (Homo sapiens, UniProt O96028); format: biochemical
T5 sequence (O96028 whole entry): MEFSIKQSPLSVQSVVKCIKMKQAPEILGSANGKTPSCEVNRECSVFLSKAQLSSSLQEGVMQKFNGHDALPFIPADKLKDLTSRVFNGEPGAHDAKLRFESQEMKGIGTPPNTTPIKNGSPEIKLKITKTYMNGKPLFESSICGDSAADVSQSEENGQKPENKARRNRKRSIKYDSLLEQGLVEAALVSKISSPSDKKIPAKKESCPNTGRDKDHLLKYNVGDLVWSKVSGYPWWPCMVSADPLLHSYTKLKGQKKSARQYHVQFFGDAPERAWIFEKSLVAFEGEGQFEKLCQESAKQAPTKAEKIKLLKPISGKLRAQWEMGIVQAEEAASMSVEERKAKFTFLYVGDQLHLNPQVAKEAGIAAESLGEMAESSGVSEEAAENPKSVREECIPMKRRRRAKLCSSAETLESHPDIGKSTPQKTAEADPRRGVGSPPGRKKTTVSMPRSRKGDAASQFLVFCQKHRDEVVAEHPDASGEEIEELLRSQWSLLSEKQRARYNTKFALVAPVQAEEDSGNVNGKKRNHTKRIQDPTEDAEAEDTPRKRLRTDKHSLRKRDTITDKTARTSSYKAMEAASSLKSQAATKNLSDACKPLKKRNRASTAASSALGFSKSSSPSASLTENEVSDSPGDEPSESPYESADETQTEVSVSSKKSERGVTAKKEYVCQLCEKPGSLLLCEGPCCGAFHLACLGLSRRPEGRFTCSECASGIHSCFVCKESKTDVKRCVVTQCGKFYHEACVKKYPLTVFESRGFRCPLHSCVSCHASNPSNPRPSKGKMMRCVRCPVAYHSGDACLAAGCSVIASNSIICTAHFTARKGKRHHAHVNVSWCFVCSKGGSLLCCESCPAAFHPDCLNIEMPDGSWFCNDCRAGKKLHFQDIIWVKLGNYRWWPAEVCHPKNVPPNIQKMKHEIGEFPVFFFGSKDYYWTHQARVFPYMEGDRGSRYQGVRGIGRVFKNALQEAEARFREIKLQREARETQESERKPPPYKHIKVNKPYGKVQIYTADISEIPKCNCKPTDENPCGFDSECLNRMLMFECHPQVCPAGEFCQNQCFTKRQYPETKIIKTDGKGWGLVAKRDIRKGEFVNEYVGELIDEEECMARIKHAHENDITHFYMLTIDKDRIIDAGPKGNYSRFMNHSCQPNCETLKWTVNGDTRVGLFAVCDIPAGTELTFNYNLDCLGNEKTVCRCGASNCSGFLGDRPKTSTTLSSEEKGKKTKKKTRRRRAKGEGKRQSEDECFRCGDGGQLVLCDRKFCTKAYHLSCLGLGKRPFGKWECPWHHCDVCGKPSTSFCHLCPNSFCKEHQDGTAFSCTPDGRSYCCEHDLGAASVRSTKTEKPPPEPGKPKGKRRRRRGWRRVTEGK

[20] = molecular target: Eukaryotic translation initiation factor 4H (Homo sapiens, UniProt Q15056); assay: eIF4H binding inhibition – biochemical, uHTS, fluorescence polarization, translation initiation inhibitor project, primary screen (AID 2012)
[21] = molecular target: Polyadenylate-binding protein 1 (Homo sapiens, UniProt P11940); assay: blockers of PABP interaction with poly(A) – biochemical, fluorescence polarization, […] (AID 2014)
Chain of Polyadenylate-binding protein 1 (P11940 whole entry): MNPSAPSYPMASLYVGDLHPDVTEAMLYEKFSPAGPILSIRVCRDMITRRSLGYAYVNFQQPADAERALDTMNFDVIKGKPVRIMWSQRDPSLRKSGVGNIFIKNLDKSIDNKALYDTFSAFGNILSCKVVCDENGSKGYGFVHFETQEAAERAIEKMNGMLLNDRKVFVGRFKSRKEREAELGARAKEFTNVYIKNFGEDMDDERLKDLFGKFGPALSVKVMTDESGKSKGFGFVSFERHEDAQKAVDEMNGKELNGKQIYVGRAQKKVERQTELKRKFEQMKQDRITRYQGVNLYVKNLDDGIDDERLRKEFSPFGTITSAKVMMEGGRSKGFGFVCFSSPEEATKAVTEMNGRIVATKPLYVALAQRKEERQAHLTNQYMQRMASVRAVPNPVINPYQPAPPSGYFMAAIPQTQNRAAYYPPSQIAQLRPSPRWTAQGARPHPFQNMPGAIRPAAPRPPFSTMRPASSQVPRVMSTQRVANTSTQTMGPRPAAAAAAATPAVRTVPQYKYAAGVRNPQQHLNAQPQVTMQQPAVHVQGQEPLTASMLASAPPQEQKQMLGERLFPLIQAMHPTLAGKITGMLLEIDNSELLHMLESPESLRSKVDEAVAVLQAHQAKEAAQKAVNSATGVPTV

[22] = molecular target: DNA dC->dU-editing enzyme APOBEC-3A (Homo sapiens, UniProt P31941); assay: Dose Response confirmation of small molecule APOBEC3A DNA Deaminase Inhibitors via a fluorescence-based single-stranded DNA deaminase assay. [Related pubchem assays (depositor defined):AID493011, AID493024]; format: functional
Chain of DNA dC->dU-editing enzyme APOBEC-3A (P31941 whole entry): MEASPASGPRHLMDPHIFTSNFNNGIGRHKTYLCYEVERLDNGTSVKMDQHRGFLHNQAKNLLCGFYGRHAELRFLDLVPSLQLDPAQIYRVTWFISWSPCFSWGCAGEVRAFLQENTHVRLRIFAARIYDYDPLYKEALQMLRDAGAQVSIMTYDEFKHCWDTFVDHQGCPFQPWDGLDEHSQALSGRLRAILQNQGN

[23] = molecular target: DNA dC->dU-editing enzyme APOBEC-3G (Homo sapiens, UniProt Q9HC16); format: functional;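 note: Dose-response counterscreen measuring inhibition of APOBEC3G DNA deaminase activity, run while confirming APOBEC3A inhibitors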
Chain of DNA dC->dU-editing enzyme APOBEC-3G (Q9HC16 whole entry): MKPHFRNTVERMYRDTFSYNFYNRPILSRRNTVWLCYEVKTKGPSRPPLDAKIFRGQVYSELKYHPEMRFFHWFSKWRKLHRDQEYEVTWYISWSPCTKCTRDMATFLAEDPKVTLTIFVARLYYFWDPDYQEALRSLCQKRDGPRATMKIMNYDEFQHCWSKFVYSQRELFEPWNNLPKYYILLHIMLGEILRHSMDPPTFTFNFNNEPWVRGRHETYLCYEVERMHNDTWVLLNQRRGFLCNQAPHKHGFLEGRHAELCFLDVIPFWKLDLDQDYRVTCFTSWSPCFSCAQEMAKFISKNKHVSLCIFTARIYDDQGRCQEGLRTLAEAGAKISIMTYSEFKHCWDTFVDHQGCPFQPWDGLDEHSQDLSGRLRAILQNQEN

[24] = molecular target: Vasopressin V1a receptor (Homo sapiens, UniProt P37288); assay: Counterscreen for Oxytocin Receptor (OXTR) agonists: Fluorescence-based cell-based high throughput dose response assay to identify agonists of the vasopressin 1 receptor (V1R). [Related pubchem assays: 2435 (Primary screen (OXTR agonists in singlicate)), 434991 (Counterscreen (V1R agonists in triplicate)), 2482 (Summary (OXTR agonists)) …; format: functional
Chain of Vasopressin V1a receptor (P37288 whole entry): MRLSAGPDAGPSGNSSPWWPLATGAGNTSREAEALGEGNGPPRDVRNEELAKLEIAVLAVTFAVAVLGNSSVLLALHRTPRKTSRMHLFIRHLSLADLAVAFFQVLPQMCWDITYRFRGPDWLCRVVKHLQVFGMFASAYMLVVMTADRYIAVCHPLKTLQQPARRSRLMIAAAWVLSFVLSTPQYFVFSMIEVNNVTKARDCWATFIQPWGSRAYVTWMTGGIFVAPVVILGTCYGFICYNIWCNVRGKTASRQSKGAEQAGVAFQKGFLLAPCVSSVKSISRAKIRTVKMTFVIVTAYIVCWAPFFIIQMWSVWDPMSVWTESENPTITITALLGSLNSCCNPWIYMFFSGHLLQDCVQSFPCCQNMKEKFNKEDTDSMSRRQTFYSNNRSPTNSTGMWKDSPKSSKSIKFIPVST

[25] = molecular target: Oxytocin receptor (Homo sapiens, UniProt P30559); assay: Fluorescence-based cell-based high throughput dose response assay for agonists of the Oxytocin Receptor (OXTR). [Related pubchem assays: 2435 (Primary screen (OXTR agonists in singlicate)), 434991 (Counterscreen (V1R agonists in triplicate)), 2482 (Summary (OXTR agonists)), 434963 (Confirmation screen (OXTR agonists in triplicate))]; format: functional
Chain of Oxytocin receptor (P30559 whole entry): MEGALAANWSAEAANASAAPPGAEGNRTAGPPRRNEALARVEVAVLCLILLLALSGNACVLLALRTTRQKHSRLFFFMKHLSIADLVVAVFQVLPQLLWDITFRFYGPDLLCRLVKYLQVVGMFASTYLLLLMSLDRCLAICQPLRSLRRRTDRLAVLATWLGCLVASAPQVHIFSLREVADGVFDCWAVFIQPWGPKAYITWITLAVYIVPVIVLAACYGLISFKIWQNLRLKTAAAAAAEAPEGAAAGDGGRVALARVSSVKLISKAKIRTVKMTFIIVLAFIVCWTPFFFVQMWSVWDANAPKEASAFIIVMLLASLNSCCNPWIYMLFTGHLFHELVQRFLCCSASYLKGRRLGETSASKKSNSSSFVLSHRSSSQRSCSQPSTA

[26] = molecular target: Cytochrome P450 2C9 (Homo sapiens, UniProt P11712); details: Potency
Chain of Cytochrome P450 2C9 (P11712 whole entry): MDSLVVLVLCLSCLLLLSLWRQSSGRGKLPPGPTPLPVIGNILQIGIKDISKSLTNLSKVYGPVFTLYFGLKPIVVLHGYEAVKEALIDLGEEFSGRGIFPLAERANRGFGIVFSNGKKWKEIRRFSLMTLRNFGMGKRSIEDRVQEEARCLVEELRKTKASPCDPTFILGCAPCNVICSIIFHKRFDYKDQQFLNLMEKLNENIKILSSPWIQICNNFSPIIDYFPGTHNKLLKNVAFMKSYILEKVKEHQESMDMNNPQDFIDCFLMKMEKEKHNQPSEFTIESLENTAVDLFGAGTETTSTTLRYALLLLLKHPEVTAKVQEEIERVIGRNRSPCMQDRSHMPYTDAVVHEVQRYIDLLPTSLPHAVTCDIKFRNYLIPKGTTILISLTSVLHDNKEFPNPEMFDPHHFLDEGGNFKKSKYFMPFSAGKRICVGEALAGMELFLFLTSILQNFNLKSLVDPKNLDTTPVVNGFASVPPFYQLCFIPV

Chain of Aspartyl aminopeptidase (Q8I2J3 whole entry): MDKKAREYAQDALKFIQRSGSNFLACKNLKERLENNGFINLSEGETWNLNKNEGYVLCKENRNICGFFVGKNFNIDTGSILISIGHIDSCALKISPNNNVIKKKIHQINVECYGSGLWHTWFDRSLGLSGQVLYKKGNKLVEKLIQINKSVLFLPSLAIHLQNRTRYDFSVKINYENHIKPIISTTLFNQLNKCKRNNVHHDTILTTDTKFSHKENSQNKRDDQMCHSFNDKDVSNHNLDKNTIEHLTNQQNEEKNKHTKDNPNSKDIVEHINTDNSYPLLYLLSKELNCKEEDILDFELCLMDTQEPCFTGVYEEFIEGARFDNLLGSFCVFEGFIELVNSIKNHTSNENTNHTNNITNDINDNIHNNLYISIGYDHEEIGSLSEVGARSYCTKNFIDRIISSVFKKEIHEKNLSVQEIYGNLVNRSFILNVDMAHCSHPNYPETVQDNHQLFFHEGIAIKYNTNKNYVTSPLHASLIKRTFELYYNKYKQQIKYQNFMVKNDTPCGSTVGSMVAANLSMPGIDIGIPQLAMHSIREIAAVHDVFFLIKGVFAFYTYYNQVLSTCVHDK
Chain of Procathepsin L (P07711 whole entry): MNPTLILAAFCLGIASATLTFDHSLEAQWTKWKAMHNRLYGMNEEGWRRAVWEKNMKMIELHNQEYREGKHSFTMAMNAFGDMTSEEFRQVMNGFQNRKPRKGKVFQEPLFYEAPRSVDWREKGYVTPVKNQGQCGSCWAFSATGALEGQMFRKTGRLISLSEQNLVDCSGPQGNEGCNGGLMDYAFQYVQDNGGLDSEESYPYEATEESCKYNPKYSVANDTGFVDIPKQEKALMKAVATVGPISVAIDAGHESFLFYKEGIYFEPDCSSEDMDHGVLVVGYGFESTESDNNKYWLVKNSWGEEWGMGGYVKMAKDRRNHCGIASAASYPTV

**Q.** For `CCC(C)c1ccc(O)c(N)c1` (stereo unspecified), which IC50 [1] is on record?
**A.** 2.25 µM (active)

**Q.** And the IC50 [2]?
**A.** > 59.6 µM (not active)

**Q.** For `COc1cc(C(S)=NC2CCCCC2)ccc1O`, which IC50 [3] is on record?
**A.** > 100 µM (inactive)

**Q.** What about the IC50 [4] of the same compound?
**A.** 22.5 µM (active)

**Q.** And the IC50 [5]?
**A.** 3.4 µM (active)

**Q.** And the IC50 [6]?
**A.** 2.82 µM (active)

**Q.** What about the IC50 [7] of the same compound?
**A.** > 100 µM (inactive)

**Q.** What about the IC50 [8] of the same compound?
**A.** 32.6 µM (active)

**Q.** Which IC50 [9] does the source give for `COC1(NS(=O)(=O)c2ccc(Br)cc2)C(C)=CC(=O)C=C1C` here?
**A.** > 80 µM (inactive)

**Q.** Which results are given for `COc1cc(/C=C/[N+](=O)[O-])ccc1OCc1cccc(C(=O)O)c1`?
**A.** EC50 [10]: 2.43 µM (inconclusive); EC50 [11]: 0.99 µM (active); EC50 [12]: > 12 µM (inconclusive); EC50 [13]: < 0.1 µM (active); EC50 [14]: 0.161 µM (active); IC50 [15]: > 39.8 µM (not active); IC50 [16]: 7.32 µM (active); EC50 [17]: 0.937 µM (active); IC50 [18]: > 80 µM (inactive); AC50 [19]: 11.9 µM (active)

**Q.** Which IC50 [20] does the source give for `Cn1c(SCC(=O)N2CCOCC2)nnc1-c1cccc(NC(=O)c2ccccc2)c1` here?
**A.** > 100 µM (inactive)

**Q.** What about the IC50 [21] of the same compound?
**A.** 2.81 µM (active)

**Q.** And the IC50 [22]?
**A.** 2.62 µM (active)

**Q.** And the IC50 [23]?
**A.** 3.37 µM (active)

**Q.** What does the source list for `COc1ccc(C2SCCN2C(S)=Nc2cccc(Cl)c2)cc1` (stereo unspecified)?
**A.** EC50 [24]: > 29.9 µM (not active); EC50 [25]: > 29.9 µM (not active)

**Q.** For `c1csc(CNc2ncnc3ccc(-c4ccc5c(c4)OCO5)cc23)c1`, which AC50 [26] is on record?
**A.** 0.794 µM (inconclusive)
